Results reported in PMC4890880 (ACS infectious diseases, 2016).

Each molecule was assayed on HepG2-A16-CD81EGFP cells (assay: cells). Settings: Homo sapiens, HepG2, read-out: HepG2 Tox% @ 50 uM rep1.

SMILES	cytotoxicity at 50 µM
N=c1c2ccccc2nnn1-c1cccc(C(F)(F)F)c1 [MMV665923]	-7.5%
FC(F)(F)c1ccc(Nc2nnnc3ccccc23)cc1 [MMV665935]	19%
CCOc1ccc(C=Cc2nc(=O)c3ccccc3o2)cc1 [MMV665940]	19%
CCOC(=O)c1cn(CC)c2cc(N(C)CCc3ccc(OC)c(OC)c3)c(F)cc2c1=O [MMV665977]	6%
Cc1ccc(N2C(=O)C3C(C2=O)C2(c4ccccc4)C(=O)C3(c3ccccc3)C(c3ccccc3)=C2c2ccccc2)cc1 (stereo not drawn) [MMV666062]	1.06%
O=C(NC1CCCC1)c1ccc(N2CCC(NCc3cccc(C(F)(F)F)c3)CC2)cc1 [MMV666070]	-11%
CCCc1c(C)nc2ccccc2c1O [MMV666081]	0.331%

Same assay, conditions: Homo sapiens, HepG2, read-out: HepG2 Tox% @ 50 uM rep2

SMILES	cytotoxicity at 50 µM
FC(F)(F)c1ccc(Nc2nnnc3ccccc23)cc1 [MMV665935]	-5%
CCOc1ccc(C=Cc2nc(=O)c3ccccc3o2)cc1 [MMV665940]	1%
CCOC(=O)c1cn(CC)c2cc(N(C)CCc3ccc(OC)c(OC)c3)c(F)cc2c1=O [MMV665977]	3%
Cc1ccc(N2C(=O)C3C(C2=O)C2(c4ccccc4)C(=O)C3(c3ccccc3)C(c3ccccc3)=C2c2ccccc2)cc1 (stereo not drawn) [MMV666062]	8.55%
O=C(NC1CCCC1)c1ccc(N2CCC(NCc3cccc(C(F)(F)F)c3)CC2)cc1 [MMV666070]	8.43%
CCCc1c(C)nc2ccccc2c1O [MMV666081]	-5.31%

Same assay, conditions: Homo sapiens, HepG2, read-out: Tox IC50

SMILES	IC50
N=c1c2ccccc2nnn1-c1cccc(C(F)(F)F)c1 [MMV665923]	> 50 µM
FC(F)(F)c1ccc(Nc2nnnc3ccccc23)cc1 [MMV665935]	> 50 µM
CCOc1ccc(C=Cc2nc(=O)c3ccccc3o2)cc1 [MMV665940]	> 50 µM
CCOC(=O)c1cn(CC)c2cc(N(C)CCc3ccc(OC)c(OC)c3)c(F)cc2c1=O [MMV665977]	> 50 µM
Cc1ccc(N2C(=O)C3C(C2=O)C2(c4ccccc4)C(=O)C3(c3ccccc3)C(c3ccccc3)=C2c2ccccc2)cc1 (stereo not drawn) [MMV666062]	> 50 µM
O=C(NC1CCCC1)c1ccc(N2CCC(NCc3cccc(C(F)(F)F)c3)CC2)cc1 [MMV666070]	> 50 µM
CCCc1c(C)nc2ccccc2c1O [MMV666081]	> 10 µM

Same assay, conditions: Homo sapiens, HepG2, read-out: Tox max inhibition (%) @ 10 uM

SMILES	inhibition at 10 µM
CCCc1c(C)nc2ccccc2c1O [MMV666081]	2.31%

Same assay, conditions: Homo sapiens, HepG2, read-out: Tox max inhibition (%) @ 50 uM

SMILES	inhibition at 50 µM
N=c1c2ccccc2nnn1-c1cccc(C(F)(F)F)c1 [MMV665923]	26%
FC(F)(F)c1ccc(Nc2nnnc3ccccc23)cc1 [MMV665935]	7%
CCOc1ccc(C=Cc2nc(=O)c3ccccc3o2)cc1 [MMV665940]	18%
CCOC(=O)c1cn(CC)c2cc(N(C)CCc3ccc(OC)c(OC)c3)c(F)cc2c1=O [MMV665977]	3.53%
Cc1ccc(N2C(=O)C3C(C2=O)C2(c4ccccc4)C(=O)C3(c3ccccc3)C(c3ccccc3)=C2c2ccccc2)cc1 (stereo not drawn) [MMV666062]	9%
O=C(NC1CCCC1)c1ccc(N2CCC(NCc3cccc(C(F)(F)F)c3)CC2)cc1 [MMV666070]	10%

The molecules below were run against QuantiLum Recombinant Luciferase (Photinus pyralis, UniProt P08659) (assay: Bioluminescence quantification of compound luciferase inhibition). Settings: not given.
QuantiLum Recombinant Luciferase, sequence (P08659 whole entry): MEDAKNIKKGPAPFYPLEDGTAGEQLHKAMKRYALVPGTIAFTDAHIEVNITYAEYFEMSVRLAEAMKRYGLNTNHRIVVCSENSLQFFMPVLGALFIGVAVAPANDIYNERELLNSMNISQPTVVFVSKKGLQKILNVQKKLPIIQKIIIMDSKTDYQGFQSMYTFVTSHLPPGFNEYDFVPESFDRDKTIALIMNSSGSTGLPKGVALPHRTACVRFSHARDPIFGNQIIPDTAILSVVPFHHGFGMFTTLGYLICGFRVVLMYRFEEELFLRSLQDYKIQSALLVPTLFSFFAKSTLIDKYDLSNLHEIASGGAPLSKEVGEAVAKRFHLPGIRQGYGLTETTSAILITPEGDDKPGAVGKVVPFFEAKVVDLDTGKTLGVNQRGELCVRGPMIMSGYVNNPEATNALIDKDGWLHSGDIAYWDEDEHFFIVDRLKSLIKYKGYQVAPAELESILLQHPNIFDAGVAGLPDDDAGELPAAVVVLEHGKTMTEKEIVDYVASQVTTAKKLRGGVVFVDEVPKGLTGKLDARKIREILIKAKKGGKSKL

SMILES	IC50
N=c1c2ccccc2nnn1-c1cccc(C(F)(F)F)c1 [MMV665923]	> 50 µM
FC(F)(F)c1ccc(Nc2nnnc3ccccc23)cc1 [MMV665935]	> 50 µM
CCOc1ccc(C=Cc2nc(=O)c3ccccc3o2)cc1 [MMV665940]	16.5 µM
CCOC(=O)c1cn(CC)c2cc(N(C)CCc3ccc(OC)c(OC)c3)c(F)cc2c1=O [MMV665977]	> 50 µM
Cc1ccc(N2C(=O)C3C(C2=O)C2(c4ccccc4)C(=O)C3(c3ccccc3)C(c3ccccc3)=C2c2ccccc2)cc1 (stereo not drawn) [MMV666062]	> 50 µM
O=C(NC1CCCC1)c1ccc(N2CCC(NCc3cccc(C(F)(F)F)c3)CC2)cc1 [MMV666070]	> 50 µM
CCCc1c(C)nc2ccccc2c1O [MMV666081]	> 20 µM

Same assay, conditions: read-out: LucInhib max inhibition

SMILES	Emax
N=c1c2ccccc2nnn1-c1cccc(C(F)(F)F)c1 [MMV665923]	26%
FC(F)(F)c1ccc(Nc2nnnc3ccccc23)cc1 [MMV665935]	25%
CCOc1ccc(C=Cc2nc(=O)c3ccccc3o2)cc1 [MMV665940]	85%
CCOC(=O)c1cn(CC)c2cc(N(C)CCc3ccc(OC)c(OC)c3)c(F)cc2c1=O [MMV665977]	40%
Cc1ccc(N2C(=O)C3C(C2=O)C2(c4ccccc4)C(=O)C3(c3ccccc3)C(c3ccccc3)=C2c2ccccc2)cc1 (stereo not drawn) [MMV666062]	23%
O=C(NC1CCCC1)c1ccc(N2CCC(NCc3cccc(C(F)(F)F)c3)CC2)cc1 [MMV666070]	18%
CCCc1c(C)nc2ccccc2c1O [MMV666081]	18%

Each molecule was assayed on Plasmodium berghei (Pb-Luc) exoerythrocytic-stage parasites (assay: microbe, parasite or virus in culture). Settings: read-out: Inhibition% @ 50 uM rep1.

SMILES	inhibition at 50 µM
N=c1c2ccccc2nnn1-c1cccc(C(F)(F)F)c1 [MMV665923]	99%
FC(F)(F)c1ccc(Nc2nnnc3ccccc23)cc1 [MMV665935]	102%
CCOc1ccc(C=Cc2nc(=O)c3ccccc3o2)cc1 [MMV665940]	102%
CCOC(=O)c1cn(CC)c2cc(N(C)CCc3ccc(OC)c(OC)c3)c(F)cc2c1=O [MMV665977]	103%
Cc1ccc(N2C(=O)C3C(C2=O)C2(c4ccccc4)C(=O)C3(c3ccccc3)C(c3ccccc3)=C2c2ccccc2)cc1 (stereo not drawn) [MMV666062]	91%
O=C(NC1CCCC1)c1ccc(N2CCC(NCc3cccc(C(F)(F)F)c3)CC2)cc1 [MMV666070]	98%
CCCc1c(C)nc2ccccc2c1O [MMV666081]	101%

Same assay, conditions: read-out: Inhibition% @ 50 uM rep2

SMILES	inhibition at 50 µM
N=c1c2ccccc2nnn1-c1cccc(C(F)(F)F)c1 [MMV665923]	99%
FC(F)(F)c1ccc(Nc2nnnc3ccccc23)cc1 [MMV665935]	101%
CCOc1ccc(C=Cc2nc(=O)c3ccccc3o2)cc1 [MMV665940]	101%
CCOC(=O)c1cn(CC)c2cc(N(C)CCc3ccc(OC)c(OC)c3)c(F)cc2c1=O [MMV665977]	106%
Cc1ccc(N2C(=O)C3C(C2=O)C2(c4ccccc4)C(=O)C3(c3ccccc3)C(c3ccccc3)=C2c2ccccc2)cc1 (stereo not drawn) [MMV666062]	100%
O=C(NC1CCCC1)c1ccc(N2CCC(NCc3cccc(C(F)(F)F)c3)CC2)cc1 [MMV666070]	96%
CCCc1c(C)nc2ccccc2c1O [MMV666081]	103%

Same assay, conditions: read-out: PbLuc IC50, dose response, 1/3 dilutions, max conc. 10 or 50 uM, unit inferred

SMILES	IC50
N=c1c2ccccc2nnn1-c1cccc(C(F)(F)F)c1 [MMV665923]	0.789 µM
FC(F)(F)c1ccc(Nc2nnnc3ccccc23)cc1 [MMV665935]	0.738 µM
CCOc1ccc(C=Cc2nc(=O)c3ccccc3o2)cc1 [MMV665940]	0.646 µM
CCOC(=O)c1cn(CC)c2cc(N(C)CCc3ccc(OC)c(OC)c3)c(F)cc2c1=O [MMV665977]	1.61 µM
Cc1ccc(N2C(=O)C3C(C2=O)C2(c4ccccc4)C(=O)C3(c3ccccc3)C(c3ccccc3)=C2c2ccccc2)cc1 (stereo not drawn) [MMV666062]	6.54 µM
O=C(NC1CCCC1)c1ccc(N2CCC(NCc3cccc(C(F)(F)F)c3)CC2)cc1 [MMV666070]	1.86 µM
CCCc1c(C)nc2ccccc2c1O [MMV666081]	0.195 µM

Same assay, conditions: read-out: PbLuc max inhibition (%) @ 10 uM

SMILES	inhibition at 10 µM
CCCc1c(C)nc2ccccc2c1O [MMV666081]	100%

Same assay, conditions: read-out: PbLuc max inhibition (%) @ 50 uM

SMILES	inhibition at 50 µM
N=c1c2ccccc2nnn1-c1cccc(C(F)(F)F)c1 [MMV665923]	104%
FC(F)(F)c1ccc(Nc2nnnc3ccccc23)cc1 [MMV665935]	105%
CCOc1ccc(C=Cc2nc(=O)c3ccccc3o2)cc1 [MMV665940]	104%
CCOC(=O)c1cn(CC)c2cc(N(C)CCc3ccc(OC)c(OC)c3)c(F)cc2c1=O [MMV665977]	106%
Cc1ccc(N2C(=O)C3C(C2=O)C2(c4ccccc4)C(=O)C3(c3ccccc3)C(c3ccccc3)=C2c2ccccc2)cc1 (stereo not drawn) [MMV666062]	102%
O=C(NC1CCCC1)c1ccc(N2CCC(NCc3cccc(C(F)(F)F)c3)CC2)cc1 [MMV666070]	98%
